Data published in patent US12509460B2 (Skyhawk Therapeutics, Inc., priority 2019, dated 2025).

What was measured:
[1] = tested on: mHTT protein in GM04724 (CAG 70/20) Huntington's disease patient lymphoblast cells; test: mHTT protein assay, 2B7-MW1 assay via Mesoscale Discovery (MSD); format: cell-based, human
Method in brief: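 Patient lymphoblasts treated 48 h with compound from 10 μM to 0.6 nM. mHTT quantified by MSD 2B7-MW1 immunoassay, whose signal depends on polyQ expansion and HTT size. Viability measured on a replicate plate by CellTiter Glo.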

[2] = tested on: SMN protein in spinal muscular atrophy (SMA) patient fibroblasts (GM03813, Coriell); test: SMN protein assay, Mesoscale Discovery (MSD); format: cell-based, human; details: for EC50: read-out: SMN2 protein EC50
Method in brief: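 SMA patient fibroblasts (GM03813) seeded at 7000 cells/well and exposed to compound at 2.5 μM to 0.6 nM for 48 hours. Lysates assayed for SMN by MSD immunoassay, with absolute SMN amount calculated from a per-plate SMN standard curve (1 μg/ml to 19.5 pg/ml).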

[3] = tested on: MDR1-MDCK cell monolayers; details: dog, MDCK-MDR1, 120 min, 5 μM, pH 7.4
MDR1 (P-gp) = test: in vitro; details: dog, MDCK-MDR1, pH 7.4
MDR1 = test: in vitro; details: dog, MDCK-MDR1, pH 7.4
[4] = GM04724 Huntington's disease patient lymphoblasts
[5] = SMA patient fibroblasts GM03813, 48 hours, MSD
[6] = GM04724 (CAG 70/20) Huntington's disease patient lymphoblasts
[7] = SMA patient fibroblasts (GM03813), 48 hours

| SMILES | mHTT protein EC50 [1, 4] | EC50 [2, 5] | MDCK-MDR1: % Recov A-B [3] | MDCK-MDR1: % Recov B-A [3] | Papp A→B at 120 min, 5 μM (MDR1 (P-gp)) | Papp B→A at 120 min, 5 μM (MDR1 (P-gp)) | efflux ratio at 120 min, 5 μM (MDR1) | SMN2 protein EC50 [2, 5] | mHTT protein EC50 [1, 6] | SMN2 protein EC50 [2, 7] | EC50 [1, 4] |
| --- | --- | --- | --- | --- | --- | --- | --- | --- | --- | --- | --- |
| CN(c1ccc(-c2cc3occc(=O)c3cc2O)nn1)[C@H]1C[C@@H]2CC[C@H]([C@H]1F)N2C (single isomer, unassigned) [Compound 94B] | E (501 ≤ E ≤ 10.000) | 101 to 500 nM | 73% | 83% | 4.47 ×10⁻⁶ cm/s | 41.2 ×10⁻⁶ cm/s | 9 | – | – | – | – |
| CC(=O)Nc1ccc(-c2ccc(N(C)[C@H]3C[C@@H]4CC[C@@H](N4)[C@H]3F)nn2)c(O)c1 (single isomer, unassigned) [Compound 32B] | E (501 ≤ E ≤ 10.000) | – | 95% | 95% | 0.27 ×10⁻⁶ cm/s | 21.2 ×10⁻⁶ cm/s | 78 | E (501 ≤ E ≤ 10.000) | – | – | – |
| CN(c1ccc(-c2cc3ncn(CC(F)(F)F)c(=O)c3cc2O)nn1)[C@@H]1C[C@H]2CC[C@@H]([C@@H]1F)N2C (single isomer, unassigned) [Compound 108A] | – | – | 82% | 91% | 1.51 ×10⁻⁶ cm/s | 73.7 ×10⁻⁶ cm/s | 49 | – | E (501 ≤ E ≤ 10.000) | E (501 ≤ E ≤ 10.000) | – |
| CC(=O)Nc1ccc(-c2ccc(N(C)[C@@H]3C[C@H]4CC[C@H](N4)[C@@H]3F)nn2)c(O)c1 (single isomer, unassigned) [Compound 32A] | E (501 ≤ E ≤ 10.000) | – | 90% | 98% | 0.34 ×10⁻⁶ cm/s | 20.2 ×10⁻⁶ cm/s | 59 | E (501 ≤ E ≤ 10.000) | – | – | – |
| CNC(=O)c1cc(O)c(-c2ccc(N(C)[C@H]3C[C@@H]4CC[C@H]([C@H]3F)N4C)nn2)cc1F (single isomer, unassigned) [Compound 96B] | E (501 ≤ E ≤ 10.000) | – | 92% | 98% | 2.72 ×10⁻⁶ cm/s | 55.2 ×10⁻⁶ cm/s | 20 | E (501 ≤ E ≤ 10.000) | – | – | – |
| CN(c1ccc(-c2ccc(C3CC3)cc2O)nn1)[C@H]1C[C@@H]2CC[C@@H](N2)[C@H]1F (single isomer, unassigned) [Compound 31B] | E (501 ≤ E ≤ 10.000) | – | 43% | 74% | 7.08 ×10⁻⁶ cm/s | 27 ×10⁻⁶ cm/s | 4 | E (501 ≤ E ≤ 10.000) | – | – | – |
| O=c1c2cc(O)c(-c3ccc(N(C4CC4)[C@H]4C[C@@H]5CC[C@@H](N5)[C@H]4F)nn3)cc2ncn1CC(F)(F)F (single isomer, unassigned) [Compound 60B] | – | 101 to 500 nM | 88% | 92% | 0.68 ×10⁻⁶ cm/s | 53 ×10⁻⁶ cm/s | 77 | – | – | – | 101 to 500 nM |
| CN(c1ccc(-c2cc3ncn(CC(F)(F)F)c(=O)c3cc2O)nn1)[C@@H]1C[C@H]2CC(F)(F)[C@@H](C1)N2C (single isomer, unassigned) [Compound 110A] | – | – | 80% | 92% | 11 ×10⁻⁶ cm/s | 44.4 ×10⁻⁶ cm/s | 4 | – | E (501 ≤ E ≤ 10.000) | E (501 ≤ E ≤ 10.000) | – |
| CN(c1ccc(-c2cc(C#N)c(F)cc2O)nn1)[C@@H]1C[C@H]2CC[C@H](N2)[C@@H]1F [Compound 72A, 2-fluoro-5-(6-(((1S,2S,3R,5R)-2-fluoro-8-azabicyclo[3.2.1]octan-3-yl)(methyl)amino)pyridazin-3-yl)-4-hydroxybenzonitrile] | E (501 ≤ E ≤ 10.000) | – | 88% | 77% | 11.6 ×10⁻⁶ cm/s | 39.9 ×10⁻⁶ cm/s | 3 | E (501 ≤ E ≤ 10.000) | – | – | – |
| CN(c1ccc(-c2cc3ncn(CC(F)(F)F)c(=O)c3cc2O)nn1)[C@H]1C[C@@H]2CC[C@H]([C@H]1F)N2C (single isomer, unassigned) [Compound 108B] | – | – | 102% | 101% | 0.98 ×10⁻⁶ cm/s | 59.5 ×10⁻⁶ cm/s | 61 | – | E (501 ≤ E ≤ 10.000) | E (501 ≤ E ≤ 10.000) | – |
| CN(c1ccc(-c2cc3cc[nH]c(=O)c3s2)nn1)[C@H]1C[C@@H]2CC[C@@H](N2)[C@H]1F (single isomer, unassigned) [Compound 66B] | E (501 ≤ E ≤ 10.000) | – | 98% | 98% | 0.07 ×10⁻⁶ cm/s | 4.64 ×10⁻⁶ cm/s | 68 | E (501 ≤ E ≤ 10.000) | – | – | – |
| CN(c1ccc(-c2cc3ncn(CC(F)(F)F)c(=O)c3cc2O)nn1)[C@H]1C[C@@H]2CCC[C@H]([C@H]1F)N2C (single isomer, unassigned) [Compound 109B] | – | – | 74% | 87% | 2.39 ×10⁻⁶ cm/s | 63.3 ×10⁻⁶ cm/s | 26 | – | E (501 ≤ E ≤ 10.000) | E (501 ≤ E ≤ 10.000) | – |
| CN(c1ccc(-c2cn3c(=O)ccnc3cc2O)nn1)[C@H]1C[C@@H]2CC[C@@H](N2)[C@H]1F (single isomer, unassigned) [Compound 82B] | E (501 ≤ E ≤ 10.000) | 101 to 500 nM | 72% | 110% | < 0.21 ×10⁻⁶ cm/s | 3.28 ×10⁻⁶ cm/s | > 15 | – | – | – | – |
| CN(c1ccc(-c2ccc(C(F)F)cc2O)nn1)[C@H]1C[C@@H]2CC[C@@H](N2)[C@H]1F (single isomer, unassigned) [Compound 120B] | – | – | 60% | 76% | 5.84 ×10⁻⁶ cm/s | 27.3 ×10⁻⁶ cm/s | 5 | – | E (501 ≤ E ≤ 10.000) | E (501 ≤ E ≤ 10.000) | – |
| CN(c1ccc(-c2cc3cccnc3cc2O)nn1)[C@H]1C[C@@H]2CC(F)(F)[C@H](C1)N2 [Compound 45B, 6-(6-(((1R,3S,5S)-6,6-difluoro-8-azabicyclo[3.2.1]octan-3-yl)(methyl)amino)pyridazin-3-yl)quinolin-7-ol] | E (501 ≤ E ≤ 10.000) | – | 95% | 111% | 10.2 ×10⁻⁶ cm/s | 45.3 ×10⁻⁶ cm/s | 4 | E (501 ≤ E ≤ 10.000) | – | – | – |
| CN(c1ccc(-c2cnc(-c3cnn(C)c3)nc2O)nn1)[C@H]1C[C@@H]2CC[C@@H](N2)[C@H]1F (racemic) [Compound 122, rac-5-(6-(((1R,2R,3S,5S)-2-fluoro-8-azabicyclo[3.2.1]octan-3-yl)(methyl)amino)pyridazin-3-yl)-2-(1-methyl-1H-pyrazol-4-yl)pyrimidin-4-ol] | – | – | 86% | 98% | < 0.2 ×10⁻⁶ cm/s | 0.6 ×10⁻⁶ cm/s | > 3 | – | – | E (501 ≤ E ≤ 10.000) | – |
